Measurements as given in patent US20200002377A1, “COMPOUNDS USEFUL FOR THE TREATMENT AND/OR CARE OF THE SKIN, HAIR, NAILS AND/OR MUCOUS MEMBRANES” (LUBRIZOL ADVANCED MATERIALS, INC., priority 2016, published 2020).
Residues, ends and D or L forms follow the SMILES beside them. *: point of attachment. Palmitoyl = CCCCCCCCCCCCCCCC(=O)*; NHhexadecyl = CCCCCCCCCCCCCCCCN*

How the values were obtained:
[1] = test system: Reconstructed Human Epidermis (RHE); assay: Lipidomic profile (UPLC-MS) of in vitro epidermal model; type: cell-based; settings: 50 μg/ml, 24 hours, vs basal conditions
Method: The SkinEthic human tissue models (EpiSkin™) are removed from their agarose-nutrient solution in the multiwell plate immediately after arrival and are placed in a 6-well plate in which each well has previously been filled with SkinEthic Growth Medium (EpiSkin™). After overnight incubation at 37° C., 5% CO2, Reconstructed Human Epidermis (RHE) are treated with 50 μg/ml of peptides Ac-Glu-Glu-Met-Gln-Arg-Arg-NH2 (PEP-1), Ac-Glu-Glu-Met-Gln-Arg-Arg-Ala-NH2 (PEP-2) or Ac-Glu-Glu-Met-Gln-Arg-Arg-Ala-Asp-NH2 (PEP-3) or medium (basal conditions) for 24 hours at 37° C. and 5% CO2. After the 24 hours treatment, RHE are frozen and stored at −20° C. Each treatment is applied to five RHE per condition.
Epidermal membrane model samples are thawed and removed from the inserts using a scalpel and transferred to homogenization tubes. Samples are mixed with sodium chloride (50 mM) and chloroform/methanol (2/1) (v:v) and homogenized. The extraction solvent is spiked with metabolites not detected in unspiked human serum extracts. After homogenizing the samples, extracts are incubated for 1 hour at −20° C. and centrifuged at 18,000×g for 15 minutes. The organic phase is then collected and dried under vacuum. Dried extracts are finally reconstituted in acetonitrile/isopropanol (1/1) (v:v), centrifuged at 18,000×g for 5 minutes and transferred to vials for UPLCs-MS analysis.
All data are processed using the TargetLynx™ application manager for MassLynx™ 4.1 software (Waters Corp., Milford, USA). A set of predefined retention time, mass-to-charge ratio pairs, Rt-m/z, corresponding to metabolites included in the analysis are fed into the program. Associated extracted ion chromatograms (mass tolerance window=0.05 Da) are then peak-detected and noise-reduced in both the LC and MS domains such that only true metabolite related features are processed by the software. A list of chromatographic peak areas is then generated for each sample injection and value respect to basal conditions is calculated.
Average of five values obtained for each peptide in relation to those obtained for basal conditions (without peptide in the medium) are shown in Table 11.

[2] = test system: Nuclear Factor Kappa B subunit 1 (NFKB1); assay: Innate immune response gene expression in HEKa, real time PCR array; type: cell-based, human; settings: 50 μg/ml, 24 h
Method: HEKa cells (Life Technologies) are seeded at 6.0×10^5 cells/well in 6-well plates and incubated in culture medium Epillfe™ with defined Growth Supplement (EDGS, Life Technologies), at 37° C. in a water-saturated atmosphere of 95% air and 5% CO2. After 24 hours of incubation under these conditions, medium is removed and cells are incubated with 50 μg/ml (w/v) of a peptide of the invention (see Table 16) in fresh culture medium keeping two wells where HEKa cells are incubated with medium only (basal conditions) at 37° C. and 5% CO2.
After 24 h of incubation, the cells are lysed directly in the wells following the protocol described on the RNeasy™ Mini kit (Qiagen) according to the manufacturer's protocol. The lysed cells are homogenized and the RNases are inactivated. The genomic DNA is removed from the samples by using gDNA Eliminator spin columns (Qiagen). Then the samples are passed through special RNA binding columns (Qiagen) and, after several microcentrifugation washes to eliminate contaminants and impurities, the purified RNA is eluted with 50 μl of ultrapure water. Quantification and analysis of purity of RNA samples are performed after RNA elution with a biophotometer (Eppendorf). 1 μg of high-quality RNA is retrotranscribed with iScript™ advanced (BioRad) in a final volume of 20 μl·Complete reaction mix is incubated in a thermal cycler (Eppendorf) at 42° C. for 30 minutes, and the reactions are stopped at 85° C. for 5 minutes. Complementary DNA is amplified by qPCR in a real-time PCR thermocycler (BioRad) using SYBR®Green supermix (BioRad) and a customized plate for use with SYBR®Green (BioRad). SYBR®Green binds to double-stranded DNA molecules and emits fluorescence which is quantified and is proportional to the amount of the product in the PCR reaction. Cycling conditions in BioRad CFX96™ instrument are 95° C. for 3 minutes, followed by 40 cycles of denaturing at 95° C. for 5 seconds, annealing and elongation at 60° C. for 30 seconds. GAPDH (Glyceraldehyde 3-phosphate dehydrogenase), TBP (TATA box binding protein) and HRPT1 (hypoxanthine phosphoribosyltransferase 1) are used as endogenous controls. Fold change relative to the expression of the sample genes and reference genes is calculated using normalized expression (ΔΔ(Ct)) method with default threshold values using CFX Manager Software (BioRad).
Genes analyzed are Chemokine (C-C motif) Ligand 5 (CCL5), Myeloid Differentiation primary response gene 88 (MyD88), Nuclear Factor Kappa B subunit 1 (NFKB1) and interferon Regulatory Factor 3 (IRF3).

[3] = test system: Staphylococcus epidermidis; assay: Adherence of Staphylococcus epidermidis in keratinocytes (HaCaT) in competition with S. aureus bioparticles; type: cell-based; settings: 50 μg/ml, 24 h, basal = 0
Method: After that treatment, cells are washed with phosphate-buffered saline (PBS, Sigma) and are then incubated with a solution of Staphylococcus epidermidis (ATCC®12228™, Culture Collections) treated with green-fluorescence calcein AM (Life technologic) and Alexa Fluor 594™ Bioparticles Staphylococcus aureus (ThermoFisher) in PBS for 30 minutes at 37° C. and protected from light. At the end of the incubation period, cells are washed with PBS and fixed in 4% (v/v) paraformaldehyde (PFA, Sigma) for 30 minutes. After rinsing with PBS, the nuclei are stained with Hoechst 33342, trihydrochloride trihydrate (ThermoFisher) in PBS for 10 minutes before analysis.
Cellular imaging is performed by fluorescence microscopy using the Operetta® High Content Imaging System (PerkinElmer). From each fluorescence image, Staphylococcus epidermidis is quantified as a number of spots and normalized against the number of keratinocyte nuclei and the total bacteria number (understood as the addition of detected S. epidermidis spots and S. aureus bioparticles). Each value obtained is normalized respect to basal conditions (non-treated keratinocytes). An image is taken in three different fields per well. 12 representative images from each condition are analyzed with Harmony software (PerkinElmer).
The normalized percentage of Staphylococcus epidermidis respect to basal conditions in treated keratinocytes is represented in Table 17.

[4] = test system: Claudin 1 (CLDN1); assay: Tight junction gene expression in HEKa, real time PCR array; settings: 50 μg/ml, 24 hours
Method: HEKa cells (Life Technologies) are seeded at 6.0×10^5 cells/well in 6-well plates and incubated in culture medium Epilife™ with defined Growth Supplement (EDGS, Life Technologies) at 37° C. in a water-saturated atmosphere of 95% air and 5% CO2. After 24 hours of incubation under these conditions, medium is removed and cells are incubated with 50 μg/ml of a peptide of the invention (see Table 12) in fresh culture medium, except for two wells where HEKa cells are incubated with medium only (basal conditions), at 37° C. and 5% CO2.
After 24 hours of incubation, the cells are lysed directly in the wells following the protocol described on the RNeasy™ Mini kit (Qiagen) according to the manufacturer's protocol. The lysed cells are homogenized and the Rnases are inactivated. The genomic DNA is removed from the samples by using gDNA Eliminator spin columns (Qiagen). […] Quantification and analysis of purity of RNA samples are performed after RNA elution with a biophotometer (Eppendorf). […] SYBR Green binds to double-stranded DNA molecules and emits fluorescence which is quantified and is proportional to the amount of the product in the PCR reaction. […] Fold change relative to the expression of the sample genes and reference genes is calculated using normalized expression (ΔΔ(Ct)) method with default threshold values using CFX Manager Software (BioRad).

Row | Compound | NFKB1 fold induction respect to basal conditions [2] | S. epidermidis (%), normalized percentage respect to basal conditions [3] | further results
1 | Ac-EEMQRRAD-NH2 [PEP-3, Ac-Glu-Glu-Met-Gln-Arg-Arg-Ala-Asp-NH2] | 2.04 | 11.46% | Cer_AP48 N-(alpha-hydroxyacyl) phytosphingosines [1]: 1.15 fold change; Cer_NP48 N-acyl phytosphingosines [1]: 1.19 fold change; Cer_NP49 N-acyl phytosphingosines [1]: 1.14 fold change; Cer_NP50 N-acyl phytosphingosines [1]: 1.30 fold change; Cer_NP51 N-acyl phytosphingosines [1]: 1.24 fold change; Cer_NS50 N-acyl sphingosines [1]: 1.14 fold change; Cer_NS51 N-acyl sphingosines [1]: 1.10 fold change; Cer_NS52 N-acyl sphingosines [1]: 1.30 fold change; Cer_NdS47 N-acyl dihydrosphingosines [1]: 1.20 fold change; Cer_NdS48 N-acyl dihydrosphingosines [1]: 1.34 fold change; Cer_NdS49 N-acyl dihydrosphingosines [1]: 1.43 fold change; Cer_NdS50 N-acyl dihydrosphingosines [1]: 1.68 fold change
2 | Ac-EEMQRKAD-NH2 [PEP-14, Ac-Glu-Glu-Met-Gln-Arg-Lys-Ala-Asp-NH2] | 2.59 | 22.18% | CLDN1 fold induction respect to basal conditions [4]: 2.59
3 | CCCCCCCCCCCCCCCC(=O)N[C@@H](CCC(=O)O)C(=O)N[C@@H](CCC(=O)O)C(=O)N[C@@H](CCSC)C(=O)N[C@@H](CCC(N)=O)C(=O)N[C@@H](CCCNC(=N)N)C(=O)N[C@@H](CCCNC(=N)N)C(=O)N[C@@H](C)C(=O)N[C@@H](CC(N)=O)C(=O)O [PEP-33, Palm-Glu-Glu-Met-Gln-Arg-Arg-Ala-Asn-OH] (Palmitoyl-EEMQRRAN-OH) | 2.63 | 58.74% | 
4 | Ac-EEMERR-NH2 [PEP-47, Ac-Glu-Glu-Met-Glu-Arg-Arg-NH2] | 2.12 | 2.91% | 
5 | Ac-EEMQRRT-NH2 [PEP-41, Ac-Glu-Glu-Met-Gln-Arg-Arg-Thr-NH2] | 2.71 | 35.69% | 
6 | Ac-EEMERRAD-OH [PEP-31, Ac-Glu-Glu-Met-Glu-Arg-Arg-Ala-Asp-OH] | 2.24 | 29.41% | 
7 | Ac-EEMQKK-NH2 [PEP-54, Ac-Glu-Glu-Met-Gln-Lys-Lys-NH2] | 2.15 | 10.91% | 
8 | Ac-EEMERRA-NH2 [PEP-39, Ac-Glu-Glu-Met-Glu-Arg-Arg-Ala-NH2] | 2.62 | 71.97% | 
9 | CCCCCCCCCCCCCCCC(=O)N[C@@H](CCC(=O)O)C(=O)N[C@@H](CCC(=O)O)C(=O)N[C@@H](CCSC)C(=O)N[C@@H](CCC(N)=O)C(=O)N[C@@H](CCCNC(=N)N)C(=O)N[C@@H](CCCNC(=N)N)C(N)=O [PEP-6, Palm-Glu-Glu-Met-Gln-Arg-Arg-NH2] (Palmitoyl-EEMQRR-NH2) | 2.62 | 29.75% | 
10 | Ac-EEMERRAD-NH2 [PEP-11, Ac-Glu-Glu-Met-Glu-Arg-Arg-Ala-Asp-NH2] | 2.63 | 4.24% | 
11 | CCCCCCCCCCCCCCCC(=O)N[C@@H](CCC(=O)O)C(=O)N[C@@H](CCC(=O)O)C(=O)N[C@@H](CCSC)C(=O)N[C@@H](CCC(N)=O)C(=O)N[C@@H](CCCNC(=N)N)C(=O)N[C@@H](CCCNC(=N)N)C(=O)N[C@@H](C)C(=O)N[C@@H](CC(=O)O)C(N)=O [PEP-27, Palm-Glu-Glu-Met-Gln-Arg-Arg-Ala-Asp-NH2] (Palmitoyl-EEMQRRAD-NH2) | 2.76 | 27.62% | 
12 | Ac-EEMQRRAQ-NH2 [PEP-19, Ac-Glu-Glu-Met-Gln-Arg-Arg-Ala-Gln-NH2] | 2.73 | 81.69% | 
13 | Ac-DEMQRRAD-NH2 [PEP-8, Ac-Asp-Glu-Met-Gln-Arg-Arg-Ala-Asp-NH2] | 2.04 | 20.45% | 
14 | Ac-EEMDRRA-NH2 [PEP-42, Ac-Glu-Glu-Met-Asp-Arg-Arg-Ala-NH2] | 2.70 | 12.36% | 
15 | Ac-EEMQRR-NH2 [PEP-1, Ac-Glu-Glu-Met-Gln-Arg-Arg-NH2] | 2.59 | 13.63. % | Cer_AP48 N-(alpha-hydroxyacyl) phytosphingosines [1]: 1.21 fold change; Cer_NP48 N-acyl phytosphingosines [1]: 1.21 fold change; Cer_NP49 N-acyl phytosphingosines [1]: 1.17 fold change; Cer_NP50 N-acyl phytosphingosines [1]: 1.18 fold change; Cer_NP51 N-acyl phytosphingosines [1]: 1.44 fold change; Cer_NS50 N-acyl sphingosines [1]: 1.20 fold change; Cer_NS51 N-acyl sphingosines [1]: 1.14 fold change; Cer_NS52 N-acyl sphingosines [1]: 1.35 fold change; Cer_NdS47 N-acyl dihydrosphingosines [1]: 1.14 fold change; Cer_NdS48 N-acyl dihydrosphingosines [1]: 1.21 fold change; Cer_NdS49 N-acyl dihydrosphingosines [1]: 1.38 fold change; Cer_NdS50 N-acyl dihydrosphingosines [1]: 1.42 fold change
16 | Ac-EEMQRRKD-NH2 [PEP-24, Ac-Glu-Glu-Met-Gln-Arg-Arg-Lys-Asp-NH2] | 2.46 | 10.41% | 
17 | CCCCCCCCCCCCCCCCNC(=O)[C@H](CC(=O)O)NC(=O)[C@H](C)NC(=O)[C@H](CCCNC(=N)N)NC(=O)[C@H](CCCNC(=N)N)NC(=O)[C@H](CCC(N)=O)NC(=O)[C@H](CCSC)NC(=O)[C@H](CCC(=O)O)NC(=O)[C@H](CCC(=O)O)NC(C)=O [PEP-35, Ac-Glu-Glu-Met-Gln-Arg-Arg-Ala-Asp-NHC16H33] (Ac-EEMQRRAD-NHhexadecyl) | 2.79 | 90.22% | 
18 | H-EEMQRR-NH2 [PEP-56, H-Glu-Glu-Met-Gln-Arg-Arg-NH2] | 1.90 | 15.75% | 
19 | Ac-EEMQRRPD-NH2 [PEP-22, Ac-Glu-Glu-Met-Gln-Arg-Arg-Pro-Asp-NH2] | 2.69 | 81.90% | 
20 | Ac-EEMQRRAN-NH2 [PEP-18, Ac-Glu-Glu-Met-Gln-Arg-Arg-Ala-Asn-NH2] | 2.69 | 26.35% | 
21 | Ac-EEMQRK-NH2 [PEP-45, Ac-Glu-Glu-Met-Gln-Arg-Lys-NH2] | 2.21 | 5.48% | 
22 | Ac-EEMNRR-NH2 [PEP-48, Ac-Glu-Glu-Met-Asn-Arg-Arg-NH2] | 1.48 | 18.02% | 
23 | CCCCCCCCCCCCCCCC(=O)N[C@@H](CCC(=O)O)C(=O)N[C@@H](CCC(=O)O)C(=O)N[C@@H](CCSC)C(=O)N[C@@H](CCC(N)=O)C(=O)N[C@@H](CCCNC(=N)N)C(=O)N[C@@H](CCCNC(=N)N)C(=O)N[C@@H](C)C(=O)N[C@@H](CC(N)=O)C(N)=O [PEP-28, Palm-Glu-Glu-Met-Gln-Arg-Arg-Ala-Asn-NH2] (Palmitoyl-EEMQRRAN-NH2) | 2.65 | 39.68% | 
24 | CCCCCCCCCCCCCCCC(=O)N[C@@H](CCC(=O)O)C(=O)N[C@@H](CCC(=O)O)C(=O)N[C@@H](CCSC)C(=O)N[C@@H](CCC(N)=O)C(=O)N[C@@H](CCCNC(=N)N)C(=O)N[C@@H](CCCCN)C(N)=O [PEP-59, Palm-Glu-Glu-Met-Gln-Arg-Lys-NH2] (Palmitoyl-EEMQRK-NH2) | 1.77 | 4.63% | 
